# ChEMBL document CHEMBL3885861, “Open TG-GATES”
# Species on record: Rattus norvegicus
# Test: Open TG-GATES - Regimen: Daily Repeat
# Format: toxicity, organism-based, Sprague-Dawley
# Parameters: regimen Daily Repeat, gender Male, age 6 weeks
# Conditions: in vivo, po, 0 mg/kg, route gavage, dose level Control; for APTT / Bas / Eos / Fbg / Hb / Ht / Lym / MCH / MCHC / MCV / Mono / Neu / PT / Plat / RBC / Ret / WBC: tissue Blood; for KIDNEY_L / KIDNEY_R / KIDNEY_TOTAL: tissue Kidney; for LIVER: tissue Liver; for A/G / ALP / ALT / AST / BUN / CRE / Ca / Cl / DBIL / GLC / IP / K / LDH / Na / PL / RALB / TBIL / TC / TG / TP / gamma-GTP: tissue Plasma
compound,measurement,setting,value
CC1=C(/C=C/C(C)=C/C=C/C(C)=C/CO)C(C)(C)CCC1 [RETINOL],TERMINAL_BW,"72 h, time 3 day",232.6 g
same,APTT,"72 h, time 3 day",21.2 s
same,Bas,"72 h, time 3 day",0%
same,Eos,"72 h, time 3 day",0.8%
same,Fbg,"72 h, time 3 day",302.6 mg/dL
same,Hb,"72 h, time 3 day",13.6 g/dL
same,Ht,"72 h, time 3 day",39.5%
same,Lym,"72 h, time 3 day",81.8%
same,MCH,"72 h, time 3 day",21.4 pg
same,MCHC,"72 h, time 3 day",34.4%
same,MCV,"72 h, time 3 day",62 fL
same,Mono,"72 h, time 3 day",2.8%
same,Neu,"72 h, time 3 day",14%
same,PT,"72 h, time 3 day",16.6 s
same,Plat,"72 h, time 3 day",116.8 x10_4/uL
same,RBC,"72 h, time 3 day",637 x10_4/ul
same,Ret,"72 h, time 3 day",6.6%
same,WBC,"72 h, time 3 day",108.7 x10_2/uL
same,KIDNEY_L,"72 h, time 3 day",1.1 g
same,KIDNEY_R,"72 h, time 3 day",1.1 g
same,KIDNEY_TOTAL,"72 h, time 3 day",2.1 g
same,LIVER,"72 h, time 3 day",11 g
same,A/G,"72 h, time 3 day",1.2
same,ALP,"72 h, time 3 day",1642.8 IU/L
same,ALT,"72 h, time 3 day",49.4 IU/L
same,AST,"72 h, time 3 day",76.2 IU/L
same,BUN,"72 h, time 3 day",18.6 mg/dL
same,CRE,"72 h, time 3 day",0.1 mg/dL
same,Ca,"72 h, time 3 day",10.9 mg/dL
same,Cl,"72 h, time 3 day",106.8 meq/L
same,DBIL,"72 h, time 3 day",0 mg/dL
same,GLC,"72 h, time 3 day",199.8 mg/dL
same,IP,"72 h, time 3 day",6.8 mg/dL
same,K,"72 h, time 3 day",4.6 meq/L
same,LDH,"72 h, time 3 day",251.8 IU/L
same,Na,"72 h, time 3 day",141.2 meq/L
same,PL,"72 h, time 3 day",145.4 mg/dL
same,RALB,"72 h, time 3 day",3 g/dL
same,TBIL,"72 h, time 3 day",0.012 mg/dL
same,TC,"72 h, time 3 day",76.2 mg/dL
same,TG,"72 h, time 3 day",94.8 mg/dL
same,TP,"72 h, time 3 day",5.5 g/dL
same,gamma-GTP,"72 h, time 3 day",1 IU/L
same,TERMINAL_BW,"[…], time 7 day",257.6 g
same,TERMINAL_BW,"[…], time 14 day",301.9 g
same,TERMINAL_BW,"[…], time 28 day",374.5 g
same,APTT,"[…], time 7 day",20.5 s
same,Bas,"[…], time 7 day",0%
same,Eos,"[…], time 7 day",0.8%
same,Fbg,"[…], time 7 day",304.8 mg/dL
same,Hb,"[…], time 7 day",13.6 g/dL
same,Ht,"[…], time 7 day",38.8%
same,Lym,"[…], time 7 day",79.6%
same,MCH,"[…], time 7 day",20.9 pg
same,MCHC,"[…], time 7 day",35.1%
same,MCV,"[…], time 7 day",59.7 fL
same,Mono,"[…], time 7 day",2.2%
same,Neu,"[…], time 7 day",16.4%
same,PT,"[…], time 7 day",16.3 s
same,Plat,"[…], time 7 day",117.2 x10_4/uL
same,RBC,"[…], time 7 day",650.4 x10_4/ul
same,Ret,"[…], time 7 day",5.1%
same,WBC,"[…], time 7 day",114.1 x10_2/uL
same,APTT,"[…], time 14 day",21.4 s
same,Bas,"[…], time 14 day",0%
same,Eos,"[…], time 14 day",0.4%
same,Fbg,"[…], time 14 day",312 mg/dL
same,Hb,"[…], time 14 day",13.7 g/dL
same,Ht,"[…], time 14 day",38.7%
same,Lym,"[…], time 14 day",78%
same,MCH,"[…], time 14 day",20.9 pg
same,MCHC,"[…], time 14 day",35.4%
same,MCV,"[…], time 14 day",59.2 fL
same,Mono,"[…], time 14 day",2%
same,Neu,"[…], time 14 day",18.2%
same,PT,"[…], time 14 day",16.1 s
same,Plat,"[…], time 14 day",122.4 x10_4/uL
same,RBC,"[…], time 14 day",654 x10_4/ul
same,Ret,"[…], time 14 day",5.2%
same,WBC,"[…], time 14 day",121.8 x10_2/uL
same,APTT,"[…], time 28 day",24.2 s
same,Bas,"[…], time 28 day",0%
same,Eos,"[…], time 28 day",1%
same,Fbg,"[…], time 28 day",354.8 mg/dL
same,Hb,"[…], time 28 day",15.1 g/dL
same,Ht,"[…], time 28 day",42.6%
same,Lym,"[…], time 28 day",83.8%
same,MCH,"[…], time 28 day",19.5 pg
same,MCHC,"[…], time 28 day",35.5%
same,MCV,"[…], time 28 day",54.8 fL
same,Mono,"[…], time 28 day",1.6%
same,Neu,"[…], time 28 day",12.6%
same,PT,"[…], time 28 day",15.8 s
same,Plat,"[…], time 28 day",113.8 x10_4/uL
same,RBC,"[…], time 28 day",778.2 x10_4/ul
same,Ret,"[…], time 28 day",2.6%
same,WBC,"[…], time 28 day",112.5 x10_2/uL
same,KIDNEY_L,"[…], time 7 day",1.1 g
same,KIDNEY_R,"[…], time 7 day",1.1 g
same,KIDNEY_TOTAL,"[…], time 7 day",2.2 g
same,KIDNEY_L,"[…], time 14 day",1.2 g
same,KIDNEY_R,"[…], time 14 day",1.2 g
same,KIDNEY_TOTAL,"[…], time 14 day",2.4 g
same,KIDNEY_L,"[…], time 28 day",1.4 g
same,KIDNEY_R,"[…], time 28 day",1.4 g
same,KIDNEY_TOTAL,"[…], time 28 day",2.7 g
same,LIVER,"[…], time 7 day",12.5 g
same,LIVER,"[…], time 14 day",13.8 g
same,LIVER,"[…], time 28 day",15.6 g
same,A/G,"[…], time 7 day",1.3
same,ALP,"[…], time 7 day",1920 IU/L
same,ALT,"[…], time 7 day",39.6 IU/L
same,AST,"[…], time 7 day",67.6 IU/L
same,BUN,"[…], time 7 day",17.4 mg/dL
same,CRE,"[…], time 7 day",0.2 mg/dL
same,Ca,"[…], time 7 day",10.7 mg/dL
same,Cl,"[…], time 7 day",106.4 meq/L
same,DBIL,"[…], time 7 day",0 mg/dL
same,GLC,"[…], time 7 day",189 mg/dL
same,IP,"[…], time 7 day",6.2 mg/dL
same,K,"[…], time 7 day",4.4 meq/L
same,LDH,"[…], time 7 day",219.6 IU/L
same,Na,"[…], time 7 day",142 meq/L
same,PL,"[…], time 7 day",145.2 mg/dL
same,RALB,"[…], time 7 day",3.2 g/dL
same,TBIL,"[…], time 7 day",0.002 mg/dL
same,TC,"[…], time 7 day",74 mg/dL
same,TG,"[…], time 7 day",109.6 mg/dL
same,TP,"[…], time 7 day",5.6 g/dL
same,gamma-GTP,"[…], time 7 day",1.2 IU/L
same,A/G,"[…], time 14 day",1.3
same,ALP,"[…], time 14 day",1383 IU/L
same,ALT,"[…], time 14 day",34.6 IU/L
same,AST,"[…], time 14 day",64.6 IU/L
same,BUN,"[…], time 14 day",17.4 mg/dL
same,CRE,"[…], time 14 day",0.2 mg/dL
same,Ca,"[…], time 14 day",10.8 mg/dL
same,Cl,"[…], time 14 day",106 meq/L
same,DBIL,"[…], time 14 day",0 mg/dL
same,GLC,"[…], time 14 day",201.8 mg/dL
same,IP,"[…], time 14 day",6.1 mg/dL
same,K,"[…], time 14 day",4.2 meq/L
same,LDH,"[…], time 14 day",226.8 IU/L
same,Na,"[…], time 14 day",142 meq/L
same,PL,"[…], time 14 day",152 mg/dL
same,RALB,"[…], time 14 day",3.2 g/dL
same,TBIL,"[…], time 14 day",0.004 mg/dL
same,TC,"[…], time 14 day",74.8 mg/dL
same,TG,"[…], time 14 day",103 mg/dL
same,TP,"[…], time 14 day",5.9 g/dL
same,gamma-GTP,"[…], time 14 day",1.2 IU/L
same,A/G,"[…], time 28 day",1.2
same,ALP,"[…], time 28 day",1062.8 IU/L
same,ALT,"[…], time 28 day",43.4 IU/L
same,AST,"[…], time 28 day",65.4 IU/L
same,BUN,"[…], time 28 day",16.8 mg/dL
same,CRE,"[…], time 28 day",0.2 mg/dL
same,Ca,"[…], time 28 day",10.6 mg/dL
same,Cl,"[…], time 28 day",106 meq/L
same,DBIL,"[…], time 28 day",0 mg/dL
same,GLC,"[…], time 28 day",194 mg/dL
same,IP,"[…], time 28 day",6.3 mg/dL
same,K,"[…], time 28 day",4 meq/L
same,LDH,"[…], time 28 day",145.6 IU/L
same,Na,"[…], time 28 day",141.2 meq/L
same,PL,"[…], time 28 day",147 mg/dL
same,RALB,"[…], time 28 day",3.3 g/dL
same,TBIL,"[…], time 28 day",0.026 mg/dL
same,TC,"[…], time 28 day",78 mg/dL
same,TG,"[…], time 28 day",100.8 mg/dL
same,TP,"[…], time 28 day",6.1 g/dL
same,gamma-GTP,"[…], time 28 day",1.2 IU/L
